Test results: patent US20140296479A1, “D-APTIDE AND RETRO-INVERSO APTIDE WITH MAINTAINED TARGET AFFINITY AND IMPROVED STABILITY” (GWANGJU INSTITUTE OF SCIENCE AND TECHNOLOGY, priority 2011, published 2014)
Where a SMILES comes first, the peptide text is derived from it. Where no end group is shown, it is not given here. [ ]: non-standard residue; d: D form.

Tests used:
[1] = biological target: T1, fibronectin EDB (Homo sapiens, UniProt P02751); test: BIAcore X (SPR) affinity for fibronectin EDB; type: binding; conditions: biotin-EDB on SA chip; for Kd / koff (dissociation rate constant): PBS pH 7.4; for kon: PBS pH 7.4, read-out: ka
T1 construct: Biotin-EDB of 2000 RU was immobilized on streptavidin SA chip
Procedure: (§1) To investigate whether the activity is maintained where Aptamer-Like Peptides specifically binding to fibronectin EDB, i.e., L-Aptide1EDB are converted into D- and Retro inverso (RI)-form, their affinity to a target was measured. Firstly, 3 peptides, L-Aptide1EDB ([…], all L-amino acids, SEQ ID NO:21), D-Aptide1EDB ([…], all D-amino acids, SEQ ID NO:21) and RI-Aptide1EDB ([…], all D-amino acids), were synthesized by Anigen Inc. (Korea). Their affinity for a target was determined using BIAcore X (Biacore AB, Uppsala, Sweden). Biotin-EDB of 2000 RU was immobilized on streptavidin SA chip (Biacore). A PBS (pH 7.4) was used as a running buffer, a flow rate was 30 μl/min, and the affinity was determined with BIAevaluation software (Biacore AB, Uppsala, Sweden) after measuring kinetics of various concentrations.

[2] = tested on: trypsin; test: Degradation of Aptides by protease, SDS-PAGE; type: in vitro ADME; conditions: 10 unit trypsin, 100 μg peptide, FIG. 3
Procedure: (§2) Degradation levels of the L-Aptide1EDB and D-Aptide1EDB were measured using proteases, α-chymotrypsin and trypsin (Sigma). The proteases of 10 unit were added to 100 μg peptides, followed by the reaction for 30, 60, 120 and 720 min, and the reaction was blocked by adding SDS sample buffer (Invitrogen). Subsequently, results for the peptide degradation were obtained from SDS-PAGE.

[3] = biological target: T2, α-chymotrypsin (Bos taurus, UniProt P00766); test: Degradation of Aptides by protease, SDS-PAGE; type: in vitro ADME; conditions: 10 unit α-chymotrypsin, 100 μg peptide, FIG. 3
T2 construct: purchased Sigma
Procedure: as §2

[4] = biological target: T3, VEGF121 (Homo sapiens, UniProt P15692); test: BIAcore X (SPR) affinity for VEGF; type: binding; conditions: VEGF121 on CM5 chip; for kd: PBS pH 7.4; for kon: PBS pH 7.4, read-out: ka
T3 sequence (P15692 27-147 isoform P15692-9): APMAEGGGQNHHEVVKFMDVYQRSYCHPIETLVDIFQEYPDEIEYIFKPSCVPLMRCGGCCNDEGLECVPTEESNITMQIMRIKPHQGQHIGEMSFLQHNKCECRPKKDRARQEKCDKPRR
Procedure: To investigate whether the activity is maintained where Aptamer-Like Peptides specifically binding to VEGF (Vascular endothelial growth factor), i.e., L-Aptide1VEGF are converted into D- and Retro inverso (RI)-form, their affinity to a target was measured. Firstly, 3 peptides, L-Aptide1VEGF ([…], all L-amino acids, SEQ ID NO:23), D-Aptide1VEGF ([…], all D-amino acids, SEQ ID NO:23) and RI-Aptide1VEGF ([…], all D-amino acids), were synthesized by Anigen Inc. (Korea). Their affinity for a target was determined using BIAcore X (Biacore AB, Uppsala, Sweden). VEGF121 of 3000 RU was immobilized on CM5 chip (Biacore). A PBS (pH 7.4) was used as a running buffer, a flow rate was 30 μl/min, and the affinity was determined with BIAevaluation software (Biacore AB, Uppsala, Sweden) after measuring kinetics of various concentrations.

[5] = biological target: T4, VEGF (Homo sapiens, UniProt P15692); test: Inhibition of VEGF activity (HUVEC proliferation assay); type: cell-based; conditions: VEGF165, 72 hours
T4 construct: purchased R&D Systems
T4 sequence (P15692 27-191 isoform P15692-4): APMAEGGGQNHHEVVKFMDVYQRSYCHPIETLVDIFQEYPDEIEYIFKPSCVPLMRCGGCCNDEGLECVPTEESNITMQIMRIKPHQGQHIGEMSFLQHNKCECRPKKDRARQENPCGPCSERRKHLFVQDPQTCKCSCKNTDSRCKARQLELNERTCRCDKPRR
Procedure: HUVECs (Human Umbilical Vein Endothelial Cells, ATCC) were starved in M199 medium (Gibco) supplemented with 1% FBS, and then they were attached to a 96-well plate at 5000 cell/well. After 12 hours, the cells were treated with medium containing both various concentrations of L-Aptide1VEGF and D-Aptide1VEGF, and VEGF165 (R&D Systems). After 72 hours, the growth inhibition rate of HUVECs by the L-AptideVEGF and D-AptideVEGF was determined using EZ-cytox cell viability assay kit (Daeil Labservice, Korea).

[6] = biological target: T5, fibronectin EDB (UniProt P02751 1266-1356, limits assumed, biotin (site not stated)); test: SPR, BIAcore X; biotin-EDB on SA chip, peptide as analyte
T5 construct: domain: EDB; Biotin-EDB, 2000 RU, immobilised on a streptavidin SA chip; also called Biotin-EDB; fibronectin extra domain B (ED-B)
Procedure: as §1, with “(Biacore).” for “(Biacore). A PBS (pH 7.4) was used as a running buffer, a flow rate was 30 μl/min, and the affinity was determined with BIAevaluation software (Biacore AB, Uppsala, Sweden) after measuring kinetics of various concentrations.”

T5 sequence (P02751 1266-1356 limits assumed): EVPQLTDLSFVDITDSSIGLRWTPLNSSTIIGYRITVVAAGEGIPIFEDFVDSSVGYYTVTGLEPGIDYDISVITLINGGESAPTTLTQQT

Molecule: CC[C@@H](C)[C@@H](NC(=O)CNC(=O)[C@@H](CCCCN)NC(=O)[C@@H](Cc1c[nH]c2ccccc12)NC(=O)[C@H](NC(=O)[C@@H](Cc1c[nH]c2ccccc12)NC(=O)[C@@H](CCCCN)NC(=O)CNC(=O)[C@@H](CC(N)=O)NC(=O)[C@@H](CCC(=O)O)NC(=O)[C@@H](Cc1c[nH]c2ccccc12)NC(=O)[C@H](NC(=O)[C@@H](Cc1c[nH]c2ccccc12)NC(=O)[C@@H](CO)NC(=O)CNC(=O)[C@H](NC(=O)[C@@H](C)NC(=O)[C@@H](CO)NC(=O)[C@@H](CO)NC(=O)[C@@H](CS)NC(=O)[C@H](N)Cc1c[nH]cn1)C(C)C)[C@H](C)O)[C@H](C)O)C(=O)N[C@@H](C(=O)N[C@H](CCCNC(=N)N)C(=O)N[C@H](CC(C)C)C(=O)N[C@H](CCC(=O)O)C(=O)N[C@H](CCC(N)=O)C(=O)O)[C@H](C)CC [D-Aptide1EDB] (H-[dH][dC][dS][dS][dA][dV]G[dS][dW][dT][dW][dE][dN]G[dK][dW][dT][dW][dK]G[dI][dI][dR][dL][dE][dQ]-OH; N-terminus and C-terminus assumed)
- Kd [1]: 58 nM
- koff (dissociation rate constant) [1]: 0.0009 s⁻¹
- kon [1]: 15000 M⁻¹ s⁻¹
- time to degradation by protease [2]: > 360 min
- time to degradation by protease [3]: > 360 min

Molecule: C[C@H](O)[C@@H](NC(=O)[C@@H](Cc1c[nH]c2ccccc12)NC(=O)[C@@H](CCCCN)NC(=O)CNC(=O)[C@@H](CC(N)=O)NC(=O)[C@@H](CCC(=O)O)NC(=O)[C@@H](Cc1c[nH]c2ccccc12)NC(=O)[C@H](NC(=O)[C@@H](Cc1c[nH]c2ccccc12)NC(=O)[C@@H](CO)NC(=O)CNC(=O)[C@@H](CCC(N)=O)NC(=O)[C@@H](Cc1ccccc1)NC(=O)[C@@H](Cc1ccccc1)NC(=O)[C@@H](CC(N)=O)NC(=O)[C@@H](C)NC(=O)[C@H](N)Cc1c[nH]cn1)[C@H](C)O)C(=O)N[C@H](Cc1c[nH]c2ccccc12)C(=O)N[C@H](CCCCN)C(=O)NCC(=O)N[C@H](Cc1c[nH]c2ccccc12)C(=O)N[C@H](CCCCN)C(=O)N[C@H](Cc1ccc(O)cc1)C(=O)N[C@H](CC(N)=O)C(=O)N[C@H](CCC(N)=O)C(=O)N[C@H](CO)C(=O)O [D-Aptide1VEGF] (H-[dH][dA][dN][dF][dF][dQ]G[dS][dW][dT][dW][dE][dN]G[dK][dW][dT][dW][dK]G[dW][dK][dY][dN][dQ][dS]-OH; N-terminus and C-terminus assumed)
- kd [4]: 0.0066 s⁻¹
- Kd ([4]; PBS pH 7.4, read-out: Kd): 50 nM
- kon [4]: 130000 M⁻¹ s⁻¹
- inhibition of VEGF activity ([5]; at 10 μM, D-form versus L-form): more inhibited VEGF activity than L-form
- inhibition of VEGF activity ([5]; at 20 μM): completely inhibited VEGF activity

Molecule: CC[C@H](C)[C@H](NC(=O)CNC(=O)[C@H](CCCCN)NC(=O)[C@H](Cc1c[nH]c2ccccc12)NC(=O)[C@@H](NC(=O)[C@H](Cc1c[nH]c2ccccc12)NC(=O)[C@H](CCCCN)NC(=O)CNC(=O)[C@H](CC(N)=O)NC(=O)[C@H](CCC(=O)O)NC(=O)[C@H](Cc1c[nH]c2ccccc12)NC(=O)[C@@H](NC(=O)[C@H](Cc1c[nH]c2ccccc12)NC(=O)[C@H](CO)NC(=O)CNC(=O)[C@@H](NC(=O)[C@H](C)NC(=O)[C@H](CO)NC(=O)[C@H](CO)NC(=O)[C@H](CS)NC(=O)[C@@H](N)Cc1c[nH]cn1)C(C)C)[C@@H](C)O)[C@@H](C)O)C(=O)N[C@H](C(=O)N[C@@H](CCCNC(=N)N)C(=O)N[C@@H](CC(C)C)C(=O)N[C@@H](CCC(=O)O)C(=O)N[C@@H](CCC(N)=O)C(=O)O)[C@@H](C)CC [L-Aptide1EDB] (H-HCSSAVGSWTWENGKWTWKGIIRLEQ-OH; N-terminus and C-terminus assumed)
- Kd [1]: 65 nM
- koff (dissociation rate constant) [1]: 0.00095 s⁻¹
- kon [1]: 10000 M⁻¹ s⁻¹
- time to degradation by protease [2]: ≤ 30 min
- time to degradation by protease [3]: ≤ 30 min

Molecule: C[C@H](NC(=O)[C@@H](N)Cc1c[nH]cn1)C(=O)N[C@@H](CC(N)=O)C(=O)N[C@@H](Cc1ccccc1)C(=O)N[C@@H](Cc1ccccc1)C(=O)N[C@@H](CCC(N)=O)C(=O)NCC(=O)N[C@@H](CO)C(=O)N[C@@H](Cc1c[nH]c2ccccc12)C(=O)N[C@H](C(=O)N[C@@H](Cc1c[nH]c2ccccc12)C(=O)N[C@@H](CCC(=O)O)C(=O)N[C@@H](CC(N)=O)C(=O)NCC(=O)N[C@@H](CCCCN)C(=O)N[C@@H](Cc1c[nH]c2ccccc12)C(=O)N[C@H](C(=O)N[C@@H](Cc1c[nH]c2ccccc12)C(=O)N[C@@H](CCCCN)C(=O)NCC(=O)N[C@@H](Cc1c[nH]c2ccccc12)C(=O)N[C@@H](CCCCN)C(=O)N[C@@H](Cc1ccc(O)cc1)C(=O)N[C@@H](CC(N)=O)C(=O)N[C@@H](CCC(N)=O)C(=O)N[C@@H](CO)C(=O)O)[C@@H](C)O)[C@@H](C)O [L-Aptide1VEGF] (H-HANFFQGSWTWENGKWTWKGWKYNQS-OH; N-terminus and C-terminus assumed)
- kd [4]: 0.01 s⁻¹
- kon [4]: 350000 M⁻¹ s⁻¹
- inhibition of VEGF activity ([5]; at 20 μM): completely inhibited VEGF activity

Molecule: [dQ][dE][dL][dR][dI][dI]G[dK][dW][dT][dW][dK]G[dN][dE][dW][dT][dW][dS]G[dV][dA][dS][dS][dC][dH] (designed binder) [RI-Aptide1EDB]
- koff [6]: 0.0011 s⁻¹

Molecule: [dH][dC][dS][dS][dA][dV]G[dS][dW][dT][dW][dE][dN]G[dK][dW][dT][dW][dK]G[dI][dI][dR][dL][dE][dQ] (designed binder) [D-Aptide1EDB]
- koff [6]: 0.0009 s⁻¹

B1: L-Aptide1EDB (designed binder)
peptide: HCSSAVGSWTWENGKWTWKGIIRLEQ
notes: Synthetic 26-mer, all L-amino acids; also called Aptide1EDB (L-form)
- koff [6]: 0.00095 s⁻¹
